In patent US12403121B2, “Anticancer rocaglamide derivatives” (priority 2018, dated 2025):

System: STS26T cells
Experiment: Western blots of treated MPNST cells
Format: cell-based, human
Settings: 1 or 2 IC50
Protocol: FIGS. 2A and 2B provide images showing that DDR and Roc increase caspase and PARP cleavage and elevated the levels of γH2AX while decreasing the expression of AKT and ERKs in MPNST cells. (A) Protein lysates prepared from STS26T cells treated for 3 days with 1 or 2 IC50 of DDR or Roc were analyzed by Western blots for the expression of various apoptosis-related proteins and mitogenic kinases AKT and ERK1/2. GAPDH served as a loading control. (B) Western blot analysis was performed on lysates from STS26T cells treated for 1 and 2 days with 1 or 2 IC50 of DDR for the expression of the DNA-damage response biomarker phosphorylated H2A.X (γH2A.X). As a positive control, lysates from HMS-97 human malignant schwannoma cells irradiated with 4 Grays (Gy) of X-ray were used.
Subconfluent cells were treated with the indicated doses of Roc or DDR for 24-72 hours and then harvested in cell lysis buffer (Cell Signaling Technology) containing 1 mM phenylmethylsufonylfluoride and protease inhibitor cocktail (Sigma-Aldrich). The protein content in cleared lysates was quantitated using the microBCA assay (ThermoFisher). Equal amounts of protein were run in sodium dodecyl sulfate-polyacrylamide gels and electrotransferred onto Immobilon-FL PVDF membranes (Millipore). The antibodies used were directed against: MDR1/ABCB1 (#13978), insulin-like growth factor-1 receptor β subunit (IGF-1Rβ; #9750), AKT (#9272), ERK1/2 (#4695), glyceraldehyde-3-phosphate dehydrogenase (GAPDH; #5174), caspase-3 (#9662), caspase-7 (#9492), cleaved caspase-7 (#9491), poly(ADP-ribose) polymerase (PARP; #9532), cleaved PARP (#5625), and phospho-histone H2A.X (pH2A.X[Ser′^39]; #9718; all from Cell Signaling Technology), NKX2.2 (sc-514161), LSD1 (sc-136174), and survivin (sc-17779; Santa Cruz Biotechnology), and FLI1 (ab15289) and cleaved caspase-3 (CC3; ab32042; Abeam). Protein bands were detected using IRDye® infrared fluorescent dye-labeled secondary antibodies and scanning on an Odyssey CLx imaging system (LI-COR Biosciences) using the appropriate fluorescent channel at a resolution of 84 μm.
To confirm induction of apoptosis in rocaglamide-treated MPNST cells, the inventors analyzed protein expression of several markers important for this process. […] A concomitant decrease in the amounts of intact caspases 3 and 7 and PARP was observed, consistent with the enhanced cleavage of these apoptotic markers and possibly due to direct effects of these rocaglamides on protein translation. Likewise, the levels of the pro-survival kinases AKT and ERK1/2 were diminished in rocaglamide-treated MPNST cells.

Question: Which results are given for `COc1ccc([C@@]23Oc4cc(OC)cc(OC)c4[C@]2(O)[C@H](O)[C@H](C(=O)N(C)C)[C@H]3c2ccccc2)cc1` [Roc, rocaglamide]?
Answer: levels of γH2AX (STS26T MPNST cells): elevated; cleavage of caspases 3 and 7 and PARP (STS26T cells, 3 days): increased cleavage; expression of AKT and ERKs (STS26T cells, 3 days): decreasing
